# Reference: patent publication US20240270715A1, “INHIBITORS OF TRANSGLUTAMINASES” (ZEDIRA GMBH, priority 2021, published 2024)
# What was measured:
# [1] = Log D by shake flask method (octanol / PBS pH 7.4, HPLC); format: physicochemical; conditions: octanol / PBS pH 7.4, shake flask; read-out: logD
# Protocol: In order to classify the inventive compounds according to their lipophilicity, Log D values (distribution coefficient) were determined by means of the well-established shake flask method, measuring the partition of a compound between an octanol and phosphate-buffered saline (PBS, pH 7.4) by HPLC.
# Compounds with a moderate lipophilicity (Log D values from 0 to 3) are usually advantaged for oral absorption, being in balance between solubility and permeability. However, sophisticated formulation of a compound might improve oral bioavailability for highly lipophilic compounds.
# [2] = Caco-2 permeability assay (CacoReady kit); format: in vitro ADME; conditions: human
# Protocol: Permeability coefficients (Papp values) were obtained from Caco-2 barrier studies predicting oral/intestinal bioavailability of the tested compounds. The assays were performed by using CacoReady™ ready-to-use kits from ReadyCell according to the manufacturers protocol.
# [3] = biological target: T1, recombinant human transglutaminase 2 (Homo sapiens, UniProt P21980); assay: Transglutaminase assay: incorporation of dansylcadaverine into dimethylcasein (DCC-assay); format: biochemical; conditions: recombinant human TG2 10 nM, dansylcadaverine/dimethylcasein; read-out: IC50 TG2
# T1 sequence (P21980 1-687): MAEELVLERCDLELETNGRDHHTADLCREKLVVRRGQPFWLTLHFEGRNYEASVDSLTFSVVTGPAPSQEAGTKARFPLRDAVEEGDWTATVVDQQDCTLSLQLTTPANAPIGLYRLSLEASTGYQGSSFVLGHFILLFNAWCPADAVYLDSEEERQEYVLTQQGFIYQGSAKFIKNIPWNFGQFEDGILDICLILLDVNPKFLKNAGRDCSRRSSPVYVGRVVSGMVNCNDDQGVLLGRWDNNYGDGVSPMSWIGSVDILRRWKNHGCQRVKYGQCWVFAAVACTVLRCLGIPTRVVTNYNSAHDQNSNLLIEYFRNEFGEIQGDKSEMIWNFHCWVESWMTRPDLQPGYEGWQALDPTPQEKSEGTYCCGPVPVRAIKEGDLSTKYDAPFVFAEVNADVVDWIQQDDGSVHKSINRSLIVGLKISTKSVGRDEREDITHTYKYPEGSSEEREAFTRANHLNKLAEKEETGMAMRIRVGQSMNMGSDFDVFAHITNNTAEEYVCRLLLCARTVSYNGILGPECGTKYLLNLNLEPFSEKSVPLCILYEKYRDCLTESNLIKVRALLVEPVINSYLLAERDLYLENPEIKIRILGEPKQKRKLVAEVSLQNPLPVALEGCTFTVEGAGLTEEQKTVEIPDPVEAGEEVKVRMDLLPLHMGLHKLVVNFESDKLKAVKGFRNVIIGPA
# Protocol: To illustrate the advantage of branched alkyl moieties over aromatic moieties, we refer to reference compounds Ref. 2 (ZED1227, U.S. Pat. No. 9,434,763 B2) and Ref. 3 (A8, ZED1047). Inhibition data were determined using the classical fluorescent transamidation assay (dansylcadaverine incorporation into methylated casein, DCC-assay) as described [Büchold, C.; Hils, M.; Gerlach, U.; Weber, J.; Pelzer, C.; Heil, A.; Aeschlimann, D.; Pasternack, R. Features of ZED1227: The First-In-Class Tissue Transglutaminase Inhibitor Undergoing Clinical Evaluation for the Treatment of Celiac Disease. Cells 2022, 11, 1667. https://doi.org/10.3390/cells11101667]. Casein is one of the best known high molecular weight (24 kDa) protein substrates for transglutaminases. Please note, the IC50 value of Ref. 3 (A8) published in U.S. Pat. No. 9,434,763 B2 cannot be compared to the present data, relying on a fluorogenic isopeptidase assay.
# To this extent, inhibition data were determined using the classical fluorescent transamidation assay (dansylcadaverine incorporation into methylated casein, DCC-assay) as described in Büchold et al. [Büchold, C.; Hils, M.; Gerlach, U.; Weber, J.; Pelzer, C.; Heil, A.; Aeschlimann, D.; Pasternack, R. Features of ZED1227: The First-In-Class Tissue Transglutaminase Inhibitor Undergoing Clinical Evaluation for the Treatment of Celiac Disease. Cells 2022, 11, 1667. https://doi.org/10.3390/cells11101667]. Casein is one of the best known high molecular weight (24 kDa) protein substrates for transglutaminases. Inhibition data of the inventive compounds was compared with inhibition of compounds disclosed in U.S. Pat. No. 9,434,763 B2, particularly, compound A8, which is denoted herein as Reference 3. It is noteworthy that the IC50 values of compounds A8 published in U.S. Pat. No. 9,434,763 B2 and E16 from U.S. Pat. No. 11,072,634 B2 cannot be compared to the present data, relying on a fluorogenic isopeptidase assay.
# For the determination of potency of inhibitors against tissue transglutaminase, the incorporation of dansylcadaverine into dimethylcasein (Zedira product T036, Lorand et al., Anal Biochem, 1971, 44:221-31) was measured using recombinant human transglutaminase 2 (Zedira Product T022).
# The tissue transglutaminase is diluted in buffer (50 mM Tris-HCl, 7.5 mM CaCl2, 150 mM NaCl, pH=7.4). The final concentration of TG2 in the assay is 10 nM.
# A 10 mM inhibitor stock solution is prepared in DMSO, and from this a serial 1:2-fold dilution series is prepared also in DMSO. Each of the initial dilutions is subsequently diluted 1:50-fold with buffer (50 mM Tris-HCl, 7.5 mM CaCl2, 150 mM NaCl, pH=7.4) to yield the final working dilutions containing 2% (v/v) DMSO. 15 μl of inhibitor working dilution are added per well of a 96 well microtiter plate. As control, 15 μl of a 2% (v/v) DMSO solution prepared using the buffer mentioned above are added per well.
# Immediately before starting the assay, 600 μl transglutaminase working solution are added to 11.4 ml assay buffer (50 mM Tris-HCl, 10 mM CaCl2, 10 mM glutathione, 2.5% glycerol, 16.7 μM dansylcadaverine, 4 μM N,N-dimethylcasein, 200 mM NaCl, pH=8.0). 285 μl of this reaction mix are added per well containing the inhibitor.
# Increase in fluorescence is measured using λex=330 nm and λemG=500 nm at […] for 30 min. A slope of the increase in fluorescence between 20 and 30 min is calculated for determination of the IC50 value (inhibitor concentration at which 50% of the initial activity is blocked).
# Analysis of enzymatic activity is performed by calculation of the slope of an increase in fluorescence intensity. IC50 values are calculated by plotting the enzymatic activity (as percentage from control containing 2% DMSO instead of inhibitor) against the inhibitor concentration. IC50 is defined as the inhibitor concentration blocking 50% of initial enzyme activity.
logD [1],Papp [2] [×10⁻⁶ cm/s],IC50 [3] [nM],SMILES
< 1,< 1,600 to 3500,"CCNC(=O)C(=O)CC[C@H](NC(=O)c1cncn1C)C(=O)Nc1cccn(CC(=O)NC23CC4CC(CC(C4)C2)C3)c1=O [Compound I-1, (S)-N1-ethyl-N6-(1-(2-(1-adamantylamino)-2-oxoethyl)-2-oxo-1,2-dihydropyridin-3-yl)-5-(1-methyl-1H-imidazole-5-carboxamido)-2-oxohexanediamide]"
< 1,< 1,600 to 3500,"CCNC(=O)C(=O)CC[C@H](NC(=O)c1c[nH]cn1)C(=O)Nc1cccn(CC(=O)NC23CC4CC(CC(C4)C2)C3)c1=O [Compound I-2, (S)-N1-ethyl-5-(1H-imidazole-4-carboxamido)-N6-(1-(2-(1-adamantylamino)-2-oxoethyl)-2-oxo-1,2-dihydropyridin-3-yl)-2-oxohexanediamide]"
1 to 3,< 1,600 to 3500,"CCNC(=O)C(=O)CC[C@H](NC(=O)c1cncn1C)C(=O)Nc1cccn(CC(=O)N(C)C23CC4CC(CC(C4)C2)C3)c1=O [Compound I-3, (S)-N1-ethyl-N6-(1-(2-(1-adamantyl(methyl)amino)-2-oxoethyl)-2-oxo-1,2-dihydropyridin-3-yl)-5-(1-methyl-1H-imidazole-5-carboxamido)-2-oxohexanediamide]"
1 to 3,< 1,< 150,"CCNC(=O)C(=O)CC[C@H](NC(=O)c1cncn1C)C(=O)Nc1cccn(CC(=O)NC23CC4CC(C)(CC(C)(C4)C2)C3)c1=O [Compound I-4, (S)-N1-ethyl-N6-(1-(2-(3,5-dimethyladamantane-1-amino)-2-oxoethyl)-2-oxo-1,2-dihydropyridin-3-yl)-5-(1-methyl-1H-imidazole-5-carboxamido)-2-oxohexanediamide]"
1 to 3,< 1,150 to 600,"CCNC(=O)C(=O)CC[C@H](NC(=O)c1cncn1C)C(=O)Nc1cccn(CC(=O)NC23CC4CC(CC(CC)(C4)C2)C3)c1=O [Compound I-5, (S)-N1-ethyl-N6-(1-(2-(3-ethyladamantane-1-amino)-2-oxoethyl)-2-oxo-1,2-dihydropyridin-3-yl)-5-(1-methyl-1H-imidazole-5-carboxamido)-2-oxohexanediamide]"
< 1,< 1,150 to 600,"CCNC(=O)C(=O)CC[C@H](NC(=O)c1cncn1C)C(=O)Nc1cccn(CC(=O)NC23CC4CC(C2)CC(C(F)(F)F)(C4)C3)c1=O [Compound I-6, (S)-N1-ethyl-N6-(1-(2-(3-trifluoromethyladamantane-1-amino)-2-oxoethyl)-2-oxo-1,2-dihydropyridin-3-yl)-5-(1-methyl-1H-imidazole-5-carboxamido)-2-oxohexanediamide]"
< 1,< 1,600 to 3500,"CCNC(=O)C(=O)CC[C@H](NC(=O)c1cncn1C)C(=O)Nc1cccn(CC(=O)NC23CC4CC(CC(O)(C4)C2)C3)c1=O [Compound I-7, (S)-N1-ethyl-N6-(1-(2-(3-hydroxyadamantane-1-amino)-2-oxoethyl)-2-oxo-1,2-dihydropyridin-3-yl)-5-(1-methyl-1H-imidazole-5-carboxamido)-2-oxohexanediamide]"
< 1,< 1,150 to 600,"CCNC(=O)C(=O)CC[C@H](NC(=O)c1cncn1C)C(=O)Nc1cccn(CC(=O)NC23CC4CC(CC(F)(C4)C2)C3)c1=O [Compound I-8, (S)-N1-ethyl-N6-(1-(2-(3-fluoroadamantane-1-amino)-2-oxoethyl)-2-oxo-1,2-dihydropyridin-3-yl)-5-(1-methyl-1H-imidazole-5-carboxamido)-2-oxohexanediamide]"
< 1,< 1,150 to 600,"CCNC(=O)C(=O)CC[C@H](NC(=O)c1cncn1C)C(=O)Nc1cccn(CC(=O)NC23CC4CC(CC(Cl)(C4)C2)C3)c1=O [Compound I-9, (S)-N1-ethyl-N6-(1-(2-(3-chloroadamantane-1-amino)-2-oxoethyl)-2-oxo-1,2-dihydropyridin-3-yl)-5-(1-methyl-1H-imidazole-5-carboxamido)-2-oxohexanediamide]"
< 1,< 1,150 to 600,"CCNC(=O)C(=O)CC[C@H](NC(=O)c1cncn1C)C(=O)Nc1cccn(CC(=O)NC23CC4CC(CC(Br)(C4)C2)C3)c1=O [Compound I-10, (S)-N1-ethyl-N6-(1-(2-(3-bromoadamantane-1-amino)-2-oxoethyl)-2-oxo-1,2-dihydropyridin-3-yl)-5-(1-methyl-1H-imidazole-5-carboxamido)-2-oxohexanediamide]"
< 1,< 1,150 to 600,"CCNC(=O)C(=O)CC[C@H](NC(=O)c1cncn1C)C(=O)Nc1cccn(CC(=O)NC23CC4CC(C2)CC(C(=O)OC)(C4)C3)c1=O [Compound I-11, (S)-N1-ethyl-N6-(1-(2-(3-methyladamantane-3-carboxylate-1-amino)-2-oxoethyl)-2-oxo-1,2-dihydropyridin-3-yl)-5-(1-methyl-1H-imidazole-5-carboxamido)-2-oxohexanediamide]"
< 1,< 1,150 to 600,"CCNC(=O)C(=O)CC[C@H](NC(=O)c1cncn1C)C(=O)Nc1cccn(CC(=O)NC23CC4CC(C2)C(F)(F)C(C4)C3)c1=O [Compound I-12, (S)-N1-ethyl-N6-(1-(2-(4,4-difluoroadamantane-1-amino)-2-oxoethyl)-2-oxo-1,2-dihydropyridin-3-yl)-5-(1-methyl-1H-imidazole-5-carboxamido)-2-oxohexanediamide]"
